From patent US4098823A, “Monospiroalkyl derivatives of prostaglandins” (Miles Laboratories, Inc., priority 1977, dated 1978)

Legend:
Femoral Blood Flow = assay: Effects on Femoral Blood Flow in the Dog; assay type: in vivo; conditions: anesthetized mongrel dog, intraarterial, 0.001 to 10 mcg
Protocol: The peripheral vasodilator or constrictor effects of these compounds were determined in mongrel dogs of either sex, weighing between 10 and 20 kg anesthestized intravenously with 35 mg/kg of sodium pentobarbital. An external iliac artery was dissected immediately above the femoral arch for a length of approximately 5 cm and a previously calibrated, non-connulating electromagnetic flowmeter sensor with a lumen between 2.5 and 3.5 mm was placed snugly around the vessel. Cannulas were placed in a branch of the artery arising distally to the location of the flowmeter sensor for intraarterial drug administrations, in the contralateral femoral artery for systemic blood pressure recordings and in the trachea for artificial respiration with room air. Femoral blood flow and systemic blood pressure were continously recorded with an electromagnetic flowmeter and pressure tranducer, respectively.
After an adequate control period, test compounds were injected intraarterially at one log-spaced doses ranging from 0.001 to 10 mcg., in a volume of 0.5 ml and at 5 to 10 minute intervals. Maximum changes in bloodflow, as well as any variations in blood pressure, were tabulated for each dose in absolute values (ml/min. and mmHg). The calculations were made taking as control values those existing immediately before administration of each dose. The direction of the observed change (plus for increase and minus for decrease) was also noted. The dose changing bloodflow by 100 ml/min (ED100 ml/min) was calculated graphically and was used for scoring activity as follows: […]

[1] = system: Blood Pressure and Heart Rate; assay: Effects on Blood Pressure and Heart Rate in the Anesthetized Cat; assay type: in vivo; conditions: Felis catus, intravenous, 0.01 to 10.0 mcg/kg, scored only on hypotension, read-out: Test D Activity Value (ED50 mmHg, decrease in blood pressure)
Outline: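 Cats of either sex anesthetized with pentobarbital sodium (35 mg/kg i.v.) plus barbital sodium (100 mg/kg i.v.), femoral arterial pressure and ECG-driven heart rate recorded. Compound given i.v. at one-log increasing doses, 0.01–10.0 mcg/kg, every 10 min. ED50 mmHg (dose lowering blood pressure by 50 mmHg) derived graphically from hypotension.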

rat stomach fundus = assay: Cascade Assay, stomach (smooth muscle stimulant effect); assay type: cell-based; conditions: superfused, 50% of maximum (PGE1)
Outline: (§1)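 Rabbit aortic strip (4 g tension), rat stomach fundus, rat colon and chick rectum (1 g) in cascade, superfused at 10 ml/min with 37° C Krebs containing cholinergic, adrenergic, serotonin and histamine blockers. Doses of 0.001–100,000 ng dripped on at 10–20 min intervals; maximal tension rise gave graphical ED50 per tissue.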

Rat Uterus = assay: Effects on the Rat Uterus in Vitro; assay type: cell-based; conditions: Rattus norvegicus; in vitro, 29° C; response 50% that of carbachol; read-out: Test F Rat Uterus, Activity Value (ED50)
Outline: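 Uterine segments came from rats (140–160 g) given 1 mg/kg diethylstilbestrol s.c. 18 h earlier. Tissue was held isometrically at 1 g tension in de Jalon solution at 29 °C, gassed with 95% O2/5% CO2. Compound was tested at 0.001–10 mcg/ml in log steps, every 10 min with washes, and ED50 was derived graphically as 50% of the second carbachol (1 mcg/ml) response.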

rabbit aortic strip = assay: Cascade Assay, aorta (smooth muscle stimulant effect); assay type: cell-based; conditions: superfused, 50% of maximum (PGA2)
Outline: as §1

EC50 (Rat Uterus): > 10 µg/mL
SMILES: COC(=O)CCCCCC[C@H]1C(=O)C[C@@H](O)[C@@H]1/C=C/[C@H](O)C1CC2(CCC2)C1 [TR-4120, Methyl 7-{3R-hydroxy-5-oxo-2R-[3R-hydroxy-3-(spiro[3.3]hept-2-yl)-1E-propenyl]cyclopent-1R-yl}heptanoate]
Test C Activity Value (ED100 ml/min, increase in femoral blood flow) (Femoral Blood Flow): 0 (>10.0)
ED (50 mmHg) [1]: > 0.01 mg/kg
Test E Cascade Assay, Stomach, Activity Value (ED50) (rat stomach fundus): 0 (>10000)
Test E Cascade Assay, Aorta, Activity Value (ED50) (rabbit aortic strip): 0 (>10000)
